Test results reported in US12083082B2, “Methods for treating neurodegenerative disorders” (Alzheon, Inc., priority 2018, dated 2024).
“Also recorded” adds a separate entry of the source. Where two headings read alike, the source gives them in different places.

Legend:
[1] = target: T1, recombinant human Aβ42 peptide (Homo sapiens, UniProt P05067); experiment: Ion mobility mass spectrometry (IMS MS) anti-Aβ42 oligomer activity / binding study; assay type: biochemical; parameters: key to Presence of Aβ42 Pentamer / Presence of Aβ42 Hexamer / Presence of Aβ42 Decamer / Presence of Aβ42 Dimer / Presence of Aβ42 Trimer / Presence of Aβ42 Tetramer: Y = yes, presence of oligomer species; N = no presence of oligomer species
T1 construct: recombinant human Aβ42 peptide; purchased BioLegend 843801
Procedure: The conditions used for mass spectrometry, using a Waters Synapt G2-S, were as follows: positive polarity in sensitivity mode, capillary=2.5 kV, nebulizer=2 mbar, source temperature=80° C., desolvation temperature=60° C., sample cone setting=35 V, source offset setting=60 V, and mass range=500 to 4000 m/z. These conditions were maintained throughout the study to ensure consistency of the data and to avoid influencing the detection of oligomers due to preferential ionization conditions.
Samples were directly infused into the mass spectrometer at a flow rate of 10 μL/min using a Protea PM-1000 Syringe Pump and Hamilton 1 mL Syringe. The data acquisition of the amyloid peptide was performed using a Waters Synapt G2-S quadrupole time of flight mass spectrometer (Q-TOF MS) with traveling wave ion mobility (Waters Corp., Milford, MA). The data were acquired using the systems sensitivity mode to allow for the detection of the less abundant oligomers. Samples were infused at room temperature. The IMS MS studies were conducted at Protea, Inc. (Morgantown, WV).
1 mg of recombinant human Aβ42 peptide from BioLegend (99% purity, cat #843801) was reconstituted in 200 μL of Fisher Optima LC/MS grade water (cat #W6-1) and vortexed vigorously for 2 minutes to solubilize the peptide creating a 5 mg/mL solution. Samples were then diluted to a final concentration of 22 pmol/μL prior to incubation. The sample mixtures were then incubated at room temperature for 0, 4 and 24 hours. After the acquisition of incubated samples was completed, the raw data were analyzed using the Waters MassLynx v2.4 suite with DriftScover v2.7 to visualize drift times for the peptide.
Aβ42 species characterization using IMS MS was performed by direct infusion at 22 pmol/μL in water. The peptide was prepared in water to maintain the native state conformation of the peptide and ion mobility data acquisition was performed to detect and characterize the conformational changes of the native state monomer and any oligomers that may have formed during the incubation.
The data acquisition for Aβ42 peptide was performed using a Waters Synapt G2-S quadrupole time of flight mass spectrometer (Q-TOF MS) with traveling wave ion mobility (Waters Corp., Milford, MA). The data were acquired using the systems sensitivity mode to allow for the detection of the less abundant oligomers. Samples were infused at room temperature as above.
1 mg of 3-SPA was reconstituted in 1 mL of Fisher Optima LC/MS grade water (cat #W6-1) and vortexed vigorously for 2 minutes until completely dissolved. The sample was then diluted to create […], and 22,000 pmol/μL solutions to perform a 100-fold, and 1,000-fold molar excess for the binding experiments with Aβ42 peptide.
1 mg of recombinant human Aβ42 peptide was reconstituted in 200 μL of Fisher Optima LC/MS grade water and vortexed vigorously to solubilize to a 5 mg/mL solution. Samples were then diluted to their final concentrations prior to incubation. The sample mixtures were incubated at room temperature for 0, 4 and 24 hours, followed by analysis as described above.
To address the high conformational flexibility of Aβ42 and to characterize its interaction with 3-SPA, we used ion mobility mass spectrometry (IMS), with a quadrupole time of flight mass spectrometer (Q-TOF MS) with traveling wave ion mobility. Resulting effect of modulation of Aβ conformational space is the prevention of oligomer formation. We have found not only concentration dependency but also time-dependency of this anti-Aβ42 oligomeric effect of 3-SPA as indicated in FIG. 3 and FIG. 4. 100- vs 1,000-fold molar excess of 3-SPA over Aβ42 results in a different sub-species profile of inhibition of Aβ42 oligomer formation. The activity is also compared with the same excess dependency of tramiprosate.

[2] = Oral and iv pharmacokinetics of 3-SPA in male SD rats; assay type: in vivo, Sprague-Dawley rats
Procedure: The oral and iv pharmacokinetics of 3-SPA was evaluated in male Sprague-Dawley fasted rats at a dose of 30 mg/kg and 10 mg/kg respectively (n=3 per groups). Animals were housed in a standard facility, with water and food was provided ad libitum to the experiment. 3-SPA was dissolved in saline, was administered orally by gavage and intravenously as a bolus. Serial blood samples (approximately 1.0 mL each) were collected from each animal at 0.25, 0.5, 1, 2, 4, 8 and 24 hours after dosing into tubes containing K2EDTA and processed for plasma by centrifugation. Plasma samples were stored at −80° C. until bioanalyses.
A separate group of animals was dosed orally at 30 mg/kg and terminal brain, CSF and plasma samples were collected at 1, 2, 6, and 24 hr (3 animals for each time point) for bioanalyses of 3-SPA in brain and CSF, and to estimate brain penetration relative to plasma concentrations. The in-life study was performed at Agilux Laboratories (Worcester, MA) following quality standards in line with Good Laboratory Practice. Bioanalyses of rat plasma, CSF and brain was preformed using LC-MS/MS at Nextcea. Prior to processing rat brains for bioanalysis, the brains were perfused to remove pooled blood. Pharmacokinetic data analyses were conducted using Winnonlin Professional v5.0.1 (Pharsight, Mountain View, CA).
The plasma concentration of a single dose of 3-SPA, dissolved in saline as a clear solution, administered orally and intravenously to rats at a dose level of 30 mg/kg and 10 mg/kg, respectively, are shown in FIG. 9. Brain, CSF and corresponding plasma levels after a single oral dose of dose of 30 mg/kg of 3-SPA at 1, 2, 6, and 24 hr are shown in FIG. 10. Mean PK curves were used for calculation of pharmacokinetic parameters.

[3] = 100:1 excess ratio compound:protein
[4] = 1000:1 excess ratio compound:protein

T1 sequence (P05067 672-713 limits assumed): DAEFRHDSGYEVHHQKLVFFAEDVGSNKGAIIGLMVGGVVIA

O=C(O)CCS(=O)(=O)O [3-SPA, 3-sulfopropanoic acid]
Presence of Aβ42 Decamer [1, 3]: N | Presence of Aβ42 Dimer [1, 3]: Y | Presence of Aβ42 Hexamer [1, 3]: Y | Presence of Aβ42 Pentamer [1, 3]: Y | Presence of Aβ42 Tetramer [1, 3]: Y | Presence of Aβ42 Trimer [1, 3]: Y | Presence of Aβ42 Decamer [1, 4]: N | Presence of Aβ42 Dimer [1, 4]: N | Presence of Aβ42 Hexamer [1, 4]: N | Presence of Aβ42 Pentamer [1, 4]: Y | Presence of Aβ42 Tetramer [1, 4]: N | Presence of Aβ42 Trimer [1, 4]: N | Inhibition of formation of Aβ42 oligomers (in words) ([1]; 4 hr incubation, ratio 1:1000): inhibits the formation of oligomers with the exception of dimers, trimers and pentamers; also recorded: Detection of Aβ42 dimers, trimers and pentamers | Inhibition of formation of Aβ42 oligomers (in words) ([1]; 24 hours incubation, 1,000-fold excess): Near complete prevention of formation of Aβ42 oligomers except for pentamers; also recorded: the only oligomeric species not inhibited were pentamers of Aβ42; also recorded: Only pentamers were detected | Tmax ([2]; Sprague-Dawley, rat, iv 10 mg/kg, plasma, read-out: Tmax): 4.8 min | Cl_obs ([2]; iv 10 mg/kg): 45 mL/min/kg | Vss_obs ([2]; iv 10 mg/kg): 12.9 L/kg | Vz_obs ([2]; iv 10 mg/kg): 43.6 L/kg | AUC 0-inf_obs ([2]; iv 10 mg/kg, plasma): 3638 ng·h/mL | AUC 0-t ([2]; iv 10 mg/kg, plasma): 3407 ng·h/mL | C0 ([2]; iv 10 mg/kg, plasma): 13599 ng/mL | Cmax ([2]; iv 10 mg/kg, plasma): 7484 ng/mL | t½ ([2]; iv 10 mg/kg, plasma): 659.4 min | Oral Bioavailability ([2]; oral 30 mg/kg vs iv 10 mg/kg): ~100% | AUC 0-inf_obs ([2]; oral 30 mg/kg, plasma): 19061 ng·h/mL | AUC 0-t ([2]; oral 30 mg/kg, plasma): 18894 ng·h/mL | Cmax ([2]; oral 30 mg/kg, plasma): 8943 ng/mL | Lambda_z ([2]; oral 30 mg/kg, plasma): 0.16 h⁻¹ | Tmax ([2]; oral 30 mg/kg, plasma): 30 min | t½ ([2]; oral 30 mg/kg, plasma): 264 min
